From US8853193B2, “Thienopyrimidines containing a substituted alkyl group for pharmaceutical compositions” (Boehringer Ingelheim International GmbH, priority 2010, dated 2014)
Structures can show the parent of a compound that is named as a salt.

Molecular target: human Mnk2a (Homo sapiens (Human), UniProt Q9HBH9)
Assay: Mnk2a in vitro kinase assay (indirect competitive fluorescence polarization)
Format: biochemical
Conditions: pre-activated GST-Mnk2a 2.5 nM, 20 μM ATP, 30 μM substrate peptide; read-out: MNK2 IC50
In short: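 GST-tagged human Mnk2a expressed in E. coli and glutathione-purified, then activated at 2.5 μM with 150 nM pre-activated NHis-ERK2 and 50 μM ATP in HEPES/KOH pH 7.4, MgCl2, DTT, Brij 78 for 45 min at 30 °C. Phospho-peptide product read by indirect competitive fluorescence polarization against fluorophore-labelled phospho-peptide bound to phospho-specific antibody.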

Chain of human Mnk2a (Q9HBH9 whole entry): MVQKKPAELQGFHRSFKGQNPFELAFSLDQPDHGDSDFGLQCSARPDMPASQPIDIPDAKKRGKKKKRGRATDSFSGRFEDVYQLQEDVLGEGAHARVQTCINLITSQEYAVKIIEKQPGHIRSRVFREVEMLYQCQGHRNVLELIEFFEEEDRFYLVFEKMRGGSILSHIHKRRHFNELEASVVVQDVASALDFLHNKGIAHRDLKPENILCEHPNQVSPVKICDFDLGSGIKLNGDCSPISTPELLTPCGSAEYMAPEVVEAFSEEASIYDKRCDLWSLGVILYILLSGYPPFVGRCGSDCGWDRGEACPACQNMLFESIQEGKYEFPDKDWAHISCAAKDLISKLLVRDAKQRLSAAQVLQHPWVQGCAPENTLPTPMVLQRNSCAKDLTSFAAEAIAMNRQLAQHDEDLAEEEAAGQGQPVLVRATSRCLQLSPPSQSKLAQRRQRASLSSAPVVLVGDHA

SMILES: Cc1c(C(N)=O)sc2ncnc(Nc3cccnc3OC(C)CCNS(C)(=O)=O)c12 (centres unmarked) [Compound 45, 4-[2-(3-Methanesulfonylamino-1-methyl-propoxy)-pyridin-3-ylamino]-5-methyl-thieno[2,3-d]pyrimidine-6-carboxylic acid amide]
- IC50: 20 nM

SMILES: Cc1c(C(=O)NCCO)sc2ncnc(Nc3ccc(F)cc3OC(C)CF)c12 (centres unmarked) [Compound 32-27]
- IC50: 7 nM

SMILES: Cc1c(C(=O)NCC(C)O)sc2ncnc(Nc3cccnc3OC(C)C)c12 (centres unmarked) [Compound 36-13, N-(2-Hydroxypropyl)-4-(2-isopropoxypyridin-3ylamino)-5-methylthieno[2,3-d]pyrimidine-6-carboxamide]
- IC50: 54 nM

SMILES: Cc1c(C(=O)NCCO)sc2ncnc(Nc3ccc(F)cc3OCC3CC3(F)F)c12 (centres unmarked) [Compound 32-20]
- IC50: 19 nM

SMILES: COC(=O)c1sc2ncnc(Nc3ccc(F)cc3OC(C)CNC(C)=O)c2c1C (centres unmarked) [Compound 3-4, Methyl 4-(2-(1-acet-amidopropan-2-yloxy)-4-fluorophenylamino)-5-methylthieno[2,3-d]pyrimidine-6-carboxylate]
- IC50: 261 nM

SMILES: Cc1c(C(=O)NCCN2CCCCC2)sc2ncnc(Nc3cccnc3OC(C)C)c12 [Compound 36-9, 4-(2-Isopropoxypyridin-3ylamino)-5-methyl-N-(2-(piperidin-1-yl)ethyl)thieno[2,3-d]pyrimidine-6-carboxamide]
- IC50: 63 nM

SMILES: Cc1c(C(=O)NCC#CCN(C)C)sc2ncnc(Nc3ccc(F)cc3OC(CF)CF)c12 [Compound 23-9, 4-(2-(1,3-difluoro-propan-2-yloxy)-4-fluorophenylamino)-N-(4-(dimethylamino)-but-2ynyl)-5-methyl-thieno[2,3-d]pyrimidine-6-carboxamide]
- IC50: 7 nM

SMILES: Cc1c(C(=O)NCCCN(C)C)sc2ncnc(Nc3ccc(F)cc3OCC3CC3(F)F)c12 (centres unmarked) [Compound 32-22]
- IC50: 36 nM

SMILES: Cc1c(C(=O)NCCO)sc2ncnc(Nc3cccnc3OC(C)C(F)(F)F)c12 (centres unmarked) [Compound 21-8, 5-Methyl-4-[2-(2,2,2-trifluoro-1-methyl-ethoxy)-pyridin-3-ylamino]-thieno[2,3-d]pyrimidine-6-carboxylic acid (4-hydroxy-ethyl)-amide]
- IC50: 20 nM

SMILES: Cc1c(C(=O)NC2CCN(C)CC2)sc2ncnc(Nc3ccc(F)cc3OC(C)CF)c12 (centres unmarked) [Compound 32-45]
- IC50: 11 nM

SMILES: COCC(C)Oc1cc(F)ccc1Nc1ncnc2sc(C(=O)NCCO)c(C)c12 (centres unmarked) [Compound 32-36]
- IC50: 25 nM

SMILES: Cc1c(C(=O)NCCCN(C)C)sc2ncnc(Nc3ccc(F)cc3OC(C)CC(C)(C)O)c12 (centres unmarked) [Compound 20-3, N-(3-(Dimethylamino)propyl)-4-(4-fluoro-2-(4-hydroxy-4-methylpentan-2-yloxy)phenylamino)-5-methyl-thieno[2,3-d]pyrimidine-6-carboxamide trifluoroacetate]
- IC50: 59 nM

SMILES: Cc1c(C(N)=O)sc2ncnc(Nc3ccc(F)cc3OCC(F)F)c12 [Compound 32-17]
- IC50: 16 nM

SMILES: Cc1c(C(=O)NS(C)(=O)=O)sc2ncnc(Nc3ccc(F)cc3OC(CF)CF)c12 [Compound 24, 4-(2-(1,3-Difluoropropan-2-yloxy)-4-fluorophenylamino)-5-methyl-N-(methylsulfonyl)thieno[2,3-d]pyrimidine-6-carboxamide]
- IC50: 7 nM

SMILES: Cc1c(C(=O)NCCO)sc2ncnc(Nc3ccc(F)cc3OC(CO)CO)c12 [Compound 32-29]
- IC50: 170 nM

SMILES: CCNC(=O)C(C)Oc1cc(F)ccc1Nc1ncnc2sc(C(=O)NC)c(C)c12 (centres unmarked) [Compound 31-6, 4-(2-(1-(ethylamino)-1-oxo-propan-2-yloxy)-4-fluorophenyl-amino)-N,5-dimethyl-thieno[2,3-d]pyrimidine-6-carbox-amide]
- IC50: 13 nM

SMILES: COCC(C)Oc1ncccc1Nc1ncnc2sc(C(=O)NCCO)c(C)c12 (centres unmarked) [Compound 28-4, N-(2-hydroxy-ethyl)-4-(2-(1-methoxy-propan-2-yloxy)pyridin-3-ylamino)-5-methylthieno-[2,3-d]-pyrimidine-6-carbox-amide]
- IC50: 78 nM

SMILES: Cc1c(C(N)=O)sc2ncnc(Nc3ccc(F)cc3OC(C)CNCCC(F)(F)F)c12 (centres unmarked) [Compound 8-2]
- IC50: 64 nM

SMILES: COC(=O)c1sc2ncnc(Nc3ccc(C#N)cc3OC(CF)CF)c2c1C [Compound 47, Methyl 4-[4-cyano-2-(2-fluoro-1-fluoromethyl-ethoxy)phenylamino]-5-methyl-thieno[2,3-d]pyrimidine-6-carboxylate]
- IC50: 125 nM

SMILES: Cc1c(C(=O)NCCCN(C)C)sc2ncnc(Nc3cccnc3OCC(C)F)c12 (centres unmarked) [Compound 27-4, N-(3-(dimethylamino)-propyl)-4-(2-(2-fluoro-propoxy)pyridin-3-ylamino)-5-methyl-thieno[2,3-d]pyrimidine-6-carboxamide hydrochloride]
- IC50: 73 nM

SMILES: COC(=O)c1sc2ncnc(Nc3ccc(F)cc3OC(C)CNC(=O)C(C)C)c2c1C (centres unmarked) [Compound 3-5, Methyl 4-(4-fluoro2-(1-isobutyramidopropan-2-yloxy)phenylamino)-5-methylthieno[2,3-d]-pyrimidine-6-carboxylate]
- IC50: 443 nM

SMILES: CCCCNC(=O)NCCC(C)Oc1cc(F)ccc1Nc1ncnc2sc(C(=O)OC)c(C)c12 (centres unmarked) [Compound 13-4, Methyl 4-(2-(4-(3-butylureido)-butan-2-yloxy)-4-fluorophenyl-amino)-5-methylthieno[2,3-d]pyrimidine-6-carboxylate]
- IC50: 898 nM

SMILES: Cc1c(C(N)=O)sc2ncnc(Nc3cccnc3OC(C)C(F)(F)F)c12 (centres unmarked) [Compound 21-3, 5-Methyl-4-(2-(1,1,1-trifluoropropan-2-yloxy)pyridin-3-ylamino)thieno[2,3-d]pyrimidine-6-carboxamide]
- IC50: 11 nM

SMILES: Cc1c(C(N)=O)sc2ncnc(Nc3ccc(F)cc3OC(C)C#N)c12 (centres unmarked) [Compound 54]
- IC50: 11 nM

SMILES: Cc1c(C(=O)NCCO)sc2ncnc(Nc3cccnc3OC(C)C)c12 [Compound 36-12, N-(2-Hydroxyethyl)-4-(2-isopropoxypyridin-3ylamino)-5-methylthieno[2,3-d]pyrimidine-6-carboxamide]
- IC50: 31 nM

SMILES: Cc1c(C(=O)NCCCN(C)C)sc2ncnc(Nc3ccc(F)cc3OCC(F)(F)F)c12 [Compound 32-16]
- IC50: 66 nM

SMILES: Cc1c(C(=O)N[C@@H]2C[C@H]2N)sc2ncnc(Nc3ccc(F)cc3OC(CF)CF)c12 (relative stereo) [Compound 25, N-((trans)-2-Aminocyclopropyl)-4-(2-(1,3-difluoropropan-2-yloxy)-4-fluorophenylamino)-5-methylthieno[2,3-d]pyrimidine-6-carboxamide hydrochloride]
- IC50: 12 nM

SMILES: Cc1c(C(=O)NCCCN2CCCC2)sc2ncnc(Nc3ccc(F)cc3OC(C)CC(F)(F)F)c12 (centres unmarked) [Compound 32-42]
- IC50: 12 nM

SMILES: COCC(C)Oc1ncccc1Nc1ncnc2sc(C(=O)NCCCN(C)C)c(C)c12 (centres unmarked) [Compound 28-5, N-(3-(di-methylamino)propyl)-4-(2-(1-methoxy-propan-2-yloxy)pyridin-3-ylamino)-5-methlthieno-[2,3-d]pyrimi-dine-6-carboxamide hydrochloride]
- IC50: 93 nM

SMILES: Cc1c(C(=O)NCCO)sc2ncnc(Nc3ccc(F)cc3OC(C)C(=O)NCCN)c12 (centres unmarked) [Compound 59, 4-{2-[1-(2-Amino-ethylcarbamoyl)-ethoxy]-4-fluoro-phenylamino}-5-methyl-thieno[2,3-d]pyrimidine-6-carboxylic acid (2-hydroxy-ethyl)amide]
- IC50: 29 nM

SMILES: COC(=O)c1sc2ncnc(Nc3ccc(F)cc3OC(C)CN(C)C)c2c1C (centres unmarked) [Compound 4, Methyl 4-(2-(1-dimethylamino)propan-2yloxy)-4-fluorophenylamino)-5-methyl-thieno[2,3-d]pyrimidine-6-carboxylate trifluoroacetate]
- IC50: 3140 nM

SMILES: COC(=O)c1sc2ncnc(Nc3ccc(F)cc3OC(C)CCN(C)C)c2c1C (centres unmarked) [Compound 14]
- IC50: 1020 nM

SMILES: Cc1c(C(=O)NC2CCN(C)CC2)sc2ncnc(Nc3ccc(F)cc3OC(C)CC(F)(F)F)c12 (centres unmarked) [Compound 32-41]
- IC50: 25 nM

SMILES: COCC(C)Oc1ncccc1Nc1ncnc2sc(C(N)=O)c(C)c12 (centres unmarked) [Compound 28-3, 4-(2-(1-Methoxygrogan-2-yloxy)gyridin-3-ylamino)-5-methyl-thieno[2,3-d]gyrimidine-6-carboxamide]
- IC50: 26 nM

SMILES: Cc1c(C(N)=O)sc2ncnc(Nc3ccc(F)cc3OC(CF)CF)c12 [Compound 23-3, 4-(2-(1,3-Difluoropropan-2-yloxy)-4-fluorophenylamino)-5-methyl-thieno[2,3-d]pyrimidine-6-carboxamide]
- IC50: 4 nM

SMILES: Cc1c(C(=O)O)sc2ncnc(Nc3ccc(F)cc3OCCC(F)(F)F)c12 [Compound 32-11]
- IC50: 14 nM

SMILES: Cc1c(C(=O)O)sc2ncnc(Nc3cccnc3OC(C)CCNS(C)(=O)=O)c12 (centres unmarked) [Compound 44, 4-[2-(3-Methanesulfonylamino-1-methyl-propoxy)-pyridin-3-ylamino]-5-methyl-thieno[2,3-d]pyrimidine-6-carboxylic acid]
- IC50: 24 nM

SMILES: Cc1c(C(=O)O)sc2ncnc(Nc3ccc(F)cc3OCCO)c12 [Compound 32-9]
- IC50: 13 nM

SMILES: Cc1c(C(=O)NCCCN(C)C)sc2ncnc(Nc3cccnc3OCC3(CC#N)CC3)c12 [Compound 33, 4-(2-((1-(Cyanomethyl)cyclopropyl)methoxy)pyridin-3-ylamino)-N-(3-(dimethylamino)propyl)-5-methylthieno[2,3-d]pyrimidine-6-carboxamide hydrochloride]
- IC50: 47 nM

SMILES: COC(=O)c1sc2ncnc(Nc3ccc(F)cc3OC(C)CNS(C)(=O)=O)c2c1C (centres unmarked) [Compound 3-1, Methyl 4-(4-fluoro-(2-(1-methylsulfonamido)propan-2-yloxy)phenylamino)-5-methyl-thieno[2,3-d]pyrimidine-6-carboxylate]
- IC50: 41 nM

SMILES: Cc1c(C(=O)NCCCN(C)C)sc2ncnc(Nc3ccc(F)cc3OC(C)CNS(C)(=O)=O)c12 (centres unmarked) [Compound 3-3]
- IC50: 18 nM
